Data taken from patent publication US8536204B2, “Amides and thioamides as pesticides” (Bayer CropScience AG, priority 2009, dated 2013).

Columns and labels:
[1] = system: green peach aphid (Myzus persicae); test: Myzus test (spray treatment); assay type: in vivo; details: 144 h, application rate 500 g/ha, spray on Chinese cabbage leaf slices, after 6 days, read-out: efficacy in % (100% means that all aphids have been killed)
Method: Myzus Test (Spray Treatment)
Solvent: • 78 parts by weight of acetone • 1.5 parts by weight of dimethylformamide
(§1) Emulsifier: 0.5 part by weight of alkylaryl polyglycol ether
(§2) To produce an appropriate active ingredient formulation, 1 part by weight of active ingredient is mixed with the amounts of solvent and emulsifier specified and the concentrate is diluted to the desired concentration with emulsifier-containing water.
Chinese cabbage leaf slices (Brassica pekinensis) infested by all stages of the green peach aphid (Myzus persicae) are sprayed with an active ingredient formulation of the desired concentration.
After 6 days, the efficacy in % is determined. 100% means that all aphids have been killed; 0% means that no aphids have been killed.

[2] = Determination of the logP values (formic acid method) by HPLC; assay type: physicochemical; details: reversed-phase HPLC column (C 18), pH 3.4, HPLC on reversed-phase column (C 18), acidic range (pH 3.4), 55° C.; Table 1; read-out: logP (HCOOH)
Method: 1) Description of Method for Determining the LogP Values (Formic Acid Method)
The logP values reported in the table were determined according to EEC-Directive 79/831 Annex V.A8 by HPLC (High Performance Liquid Chromatography) on a reversed-phase column (C 18). Temperature: 55° C.
Eluents for the determination in the acidic range (pH 3.4):
Eluent A: acetonitrile+1 ml of formic acid/litre. Eluent B: water+0.9 ml of formic acid/litre.
Gradient: from 10% eluent A/90% eluent B to 95% eluent A/5% eluent B in 4.25 min.
The calibration was effected with unbranched alkan-2-ones (with 3 to 16 carbon atoms), whose logP values are known (determination of the logP values on the basis of the retention times by linear interpolation between two successive alkanones). The lambda-max values were determined with reference to the UV spectra from 200 nm to 400 nm in the maxima of the chromatographic signals.

[3] = system: Boophilus microplus; test: Boophilus microplus test (injection); assay type: in vivo; details: application rate 20 μg/animal, injected into the abdomen, after 7 days
Method: Boophilus Microplus Test (Injection)
Solvent: dimethyl sulphoxide
To produce an appropriate active ingredient formulation, 10 mg of active ingredient is mixed with 0.5 ml of solvent stated and the concentrate is diluted to the desired concentration with solvent. The active ingredient solution is injected into the abdomen (Boophilus microplus); the animals are transferred to dishes and stored in a climate-controlled room. The action is monitored by the laying of fertile eggs.
After 7 days, the efficacy in % is determined. 100% means that no ticks have laid fertile eggs.

[4] = system: larvae of the mustard beetle (Phaedon cochleariae); test: Phaedon test (spray treatment); assay type: in vivo; details: application rate 500 g/ha, spray on Chinese cabbage leaf slices, after 7 days
Method: Phaedon Test (Spray Treatment)
Solvent: • 78.0 parts by weight of acetone • 1.5 parts by weight of dimethylformamide
as §1, §2
Chinese cabbage leaf slices (Brassica pekinensis) are sprayed with an active ingredient formulation of the desired concentration and, after drying, populated with larvae of the mustard beetle (Phaedon cochleariae).
After 7 days, the efficacy in % is determined. 100% means that all beetle larvae were killed; 0% means that no beetle larvae were killed.

chromatographic logP [2]	Structure (SMILES)	pest or weed control at 500 g/ha [1] [%]	efficacy in % (100% means that no ticks have laid fertile eggs) [3] [%]	efficacy in % (100% means that all beetle larvae were killed) [4] [%]
0.56	O=C(NCCF)c1cnn(-c2cccnc2)c1 [Example 9]	100	100	
1.18	O=C(NCC(F)(F)F)c1cnn(-c2cccnc2)c1 [Example 3, 1-(pyridin-3-yl)-N-(2,2,2-trifluoroethyl)-1H-pyrazole-4-carboxamide]	100		100
